From patent publication EP1321467A2, “High affinity inhibitors for target validation and uses thereof” (Princeton University, priority 1999, dated 2000)
Entries after “also recorded” stand apart in the source; their conditions may differ. Where two headings read alike, the source gives them in different places.

Columns and labels:
[1] = system: wild-type protein tyrosine kinase; assay: Screening of nucleotide analogs in murine lymphocyte lysate, anti-phosphotyrosine immunoblot; format: biochemical; conditions: 100 uM nucleotide triphosphate, 37°C, 5 min
I338G v-Src [2] = assay: biochemical; format: biochemical; conditions: for increase in affinity over previously optimized inhibitors of wild type kinases: versus PP1 on Fyn
I338G v-Src [3] = target: T1, I338G v-Src (Rous sarcoma virus subgroup A, UniProt P00524, DEL77-225/I338G); assay: biochemical; format: biochemical
T1 construct: catalytic domain of the target kinase, I338G v-Src, which was expressed in bacteria and purified as a glutathione-S-transferase (GST) fusion protein; made in house; host or cells: E. coli DH5a, pGEX-KT

WT v-Src = target: T2, WT v-Src (Rous sarcoma virus subgroup A, UniProt P00524, DEL77-225); assay: biochemical; format: biochemical; parameters: in vitro inhibition of WT v-Src / inhibition of WT v-Src: dose or concentration left out as unconfirmed
T2 construct: glutathione-S-transferase fusion proteins of wild type v-Src catalytic domain, I338G v-Src SH1, and WT Fyn into the pGEX-KT plasmid; GST (N); made in house; host or cells: E. coli DH5a, pGEX-KT

WT Fyn = target: T3, WT Fyn (Homo sapiens, UniProt P06241); assay: In vitro kinase inhibition assay; format: biochemical; parameters: in vitro inhibition of Fyn: dose or concentration left out as unconfirmed; conditions: for IC50: Table 3
T3 construct: GST (N); made in house; host or cells: E. coli DH5a, pGEX-KT
T3 sequence (P06241 1-534 isoform P06241-2): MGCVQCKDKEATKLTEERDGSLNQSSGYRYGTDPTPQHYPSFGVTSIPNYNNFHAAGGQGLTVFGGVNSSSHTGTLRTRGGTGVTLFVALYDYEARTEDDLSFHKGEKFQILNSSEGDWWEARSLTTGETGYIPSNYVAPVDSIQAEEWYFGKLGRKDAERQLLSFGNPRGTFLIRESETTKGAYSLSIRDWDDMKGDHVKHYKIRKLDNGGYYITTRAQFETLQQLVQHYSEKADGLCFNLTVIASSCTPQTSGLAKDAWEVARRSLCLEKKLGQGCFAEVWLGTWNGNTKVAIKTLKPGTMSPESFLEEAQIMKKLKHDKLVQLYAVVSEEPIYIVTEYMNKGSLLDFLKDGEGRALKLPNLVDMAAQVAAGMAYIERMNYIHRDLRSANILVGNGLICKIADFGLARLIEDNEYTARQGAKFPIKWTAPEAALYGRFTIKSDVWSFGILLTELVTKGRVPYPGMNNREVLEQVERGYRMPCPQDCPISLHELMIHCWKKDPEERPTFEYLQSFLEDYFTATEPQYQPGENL

F80G CDK2 = target: T4, F80G CDK2 (Homo sapiens, UniProt P24941, F80G); assay: In vitro inhibition of phosphorylation of an exogenous substrate, kinase panel; format: biochemical
T4 construct: made in house

F89G CAMK IIα = target: T5, F89G CAMK IIα (Homo sapiens, UniProt Q9UQM7, F89G); assay: as above; format: biochemical
T5 construct: made in house
T5 sequence (Q9UQM7 whole entry F89G): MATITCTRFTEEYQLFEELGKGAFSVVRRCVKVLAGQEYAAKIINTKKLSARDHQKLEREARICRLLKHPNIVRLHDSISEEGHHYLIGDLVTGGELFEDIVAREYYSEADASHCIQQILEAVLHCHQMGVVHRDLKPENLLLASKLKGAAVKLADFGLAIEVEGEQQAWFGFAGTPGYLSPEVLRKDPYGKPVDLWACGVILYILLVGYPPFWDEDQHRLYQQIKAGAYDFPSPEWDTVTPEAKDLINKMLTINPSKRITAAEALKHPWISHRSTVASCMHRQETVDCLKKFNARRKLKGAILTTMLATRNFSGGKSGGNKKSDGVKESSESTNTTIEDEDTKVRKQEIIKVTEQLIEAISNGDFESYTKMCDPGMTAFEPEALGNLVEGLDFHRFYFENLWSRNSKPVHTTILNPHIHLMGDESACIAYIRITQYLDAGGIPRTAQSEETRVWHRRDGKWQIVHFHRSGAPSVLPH

glycine mutants = assay: In vitro inhibition, all glycine mutant kinases of the panel; format: biochemical; conditions: read-out: IC 50's for all of the glycine mutants
[4] = system: panel of wild-type protein kinases; assay: In vitro inhibition, panel of wild-type protein kinases; format: biochemical
Cdc28·MBP-C1b2 = target: T6, Cdc28·MBP-C1b2 (Saccharomyces cerevisiae, UniProt P00546); assay: 1-NM-PP1 IC50, Histone H1 phosphorylation; format: biochemical; conditions: text b289; read-out: IC50
T6 construct: His6 (C); made in house; host or cells: Sf9 insect cells, baculovirus, co-infected with Cak1-HA3 (Cdc28-His6); bacteria (MBP-Clb2)
T6 sequence (P00546 whole entry): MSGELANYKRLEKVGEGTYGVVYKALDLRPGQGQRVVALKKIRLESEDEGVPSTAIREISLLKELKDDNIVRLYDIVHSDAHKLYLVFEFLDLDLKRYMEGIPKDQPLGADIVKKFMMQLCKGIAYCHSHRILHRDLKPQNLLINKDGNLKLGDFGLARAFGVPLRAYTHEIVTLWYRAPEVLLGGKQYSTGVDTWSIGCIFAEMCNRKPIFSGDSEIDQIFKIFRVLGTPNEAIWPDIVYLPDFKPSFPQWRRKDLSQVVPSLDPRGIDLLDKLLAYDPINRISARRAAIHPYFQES
T6 sequence (P24869 whole entry partner): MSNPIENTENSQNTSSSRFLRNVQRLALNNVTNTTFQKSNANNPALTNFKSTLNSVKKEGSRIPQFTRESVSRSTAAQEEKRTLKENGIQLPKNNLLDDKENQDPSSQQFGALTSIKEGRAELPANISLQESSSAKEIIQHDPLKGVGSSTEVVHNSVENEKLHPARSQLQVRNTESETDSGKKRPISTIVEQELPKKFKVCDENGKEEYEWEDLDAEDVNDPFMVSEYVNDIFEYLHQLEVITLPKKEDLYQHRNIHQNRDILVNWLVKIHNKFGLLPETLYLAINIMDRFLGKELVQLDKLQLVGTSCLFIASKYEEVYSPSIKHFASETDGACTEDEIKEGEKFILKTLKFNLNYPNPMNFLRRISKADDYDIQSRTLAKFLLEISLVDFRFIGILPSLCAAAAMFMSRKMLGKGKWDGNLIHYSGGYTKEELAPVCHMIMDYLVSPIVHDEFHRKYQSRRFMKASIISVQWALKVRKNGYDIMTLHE
Protocol: (§1) Purification of Cdc28-His6, Cdc28-as1-His6, MBP-Clb2: Lysate was prepared from insect cells co-infected with baculoviruses encoding Cdc28-His6 or Cdc28-as1-His6 and Cak1-HA3 (151). Cdc28-His6 and Cdc28-as1-His6 were purified by metal affinity chromatography as described (152), followed by […]. MBP-Clb2 was purified from lysates of bacteria expressing MBP-Clb2 (a gift of R. Deshaies) on an amylose column (NEBL), followed by anion-exchange chromatography (Pharmacia Q Sepharose Fast Flow).
(§2) Phosphate incorporation was determined at each inhibitor concentration by scintillation counting.

cdc28-as1 strain = assay: Yeast growth; format: cell-based, Saccharomyces cerevisiae; conditions: concentrations without effect on wild-type strains
wild-type cells = assay: Yeast growth; format: cell-based, Saccharomyces cerevisiae; conditions: concentrations that ablate Cdc28-as1 growth
fus3-as1 strain = assay: Yeast mating assay for Fus3 function; format: cell-based, Saccharomyces cerevisiae; conditions: 50 µM
[5] = system: wild-type Fus3 expressing cells; assay: Yeast mating assay for Fus3 function; format: cell-based, Saccharomyces cerevisiae; conditions: all concentrations up to 50 µM
[6] = system: S. cerevisiae expressing either wild-type Fus3, Fus3-asl, or no Fus3; assay: Non-selective cytotoxicity control, plating of mating cultures on YPD; conditions: any of the three strains
Cdc28-as1·MBP-C1b2 = Cdc28-as1·MBP-C1b2 (Saccharomyces cerevisiae, UniProt P00546, F88G); assay: 1-NM-PP1 IC50, Histone H1 phosphorylation; format: biochemical; parameters: His6 (C); made in house; host or cells: Sf9 insect cells, baculovirus, co-infected with Cak1-HA3 (Cdc28-as1-His6); bacteria (MBP-Clb2); conditions: IC50, text b289
Chain of Cdc28-as1·MBP-C1b2 (P00546 whole entry F88G): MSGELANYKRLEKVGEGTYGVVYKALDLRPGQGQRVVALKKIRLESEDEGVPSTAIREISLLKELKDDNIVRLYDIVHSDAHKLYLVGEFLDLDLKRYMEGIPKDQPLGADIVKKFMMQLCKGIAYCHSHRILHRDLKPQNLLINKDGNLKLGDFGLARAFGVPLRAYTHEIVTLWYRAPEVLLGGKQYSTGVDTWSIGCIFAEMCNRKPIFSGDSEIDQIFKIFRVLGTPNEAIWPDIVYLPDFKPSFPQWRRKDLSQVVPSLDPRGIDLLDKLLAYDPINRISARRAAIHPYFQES
Chain of Cdc28-as1·MBP-C1b2 (P24869 whole entry, further chain): as the sequence (P24869 whole entry partner) above
Protocol: as §1, §2

[7] = system: I338G v-Src transformed NIH3T3 cells; assay: Inhibition of v-Src in NIH3T3 fibroblasts, phosphotyrosine blot; format: cell-based, murine
[8] = system: WT v-Src transformed NIH3T3 cells; assay: as above; format: cell-based, murine
[9] = system: I338G v-Src transformed NIH3T3 fibroblasts; assay: Microscopy of cell morphology and polymerized actin; format: cell-based, murine
[10] = system: WT v-Src transformed NIH3T3 fibroblasts; assay: as above; format: cell-based, murine; conditions: 250 nM 6a, 16 hours
Jurkat cells = assay: Tyrosine phosphorylation in pervanadate treated Jurkat cells; format: cell-based, human; conditions: 500nM 6a, 30 min, then 0.5 mM pervanadate
PKCd = target: T7, PKCd (Homo sapiens, UniProt Q05655); assay: In vitro kinase inhibition assay; format: biochemical; conditions: concentrations up to 300 mM
T7 construct: 6-His; made in house
T7 sequence (Q05655 whole entry, species assumed): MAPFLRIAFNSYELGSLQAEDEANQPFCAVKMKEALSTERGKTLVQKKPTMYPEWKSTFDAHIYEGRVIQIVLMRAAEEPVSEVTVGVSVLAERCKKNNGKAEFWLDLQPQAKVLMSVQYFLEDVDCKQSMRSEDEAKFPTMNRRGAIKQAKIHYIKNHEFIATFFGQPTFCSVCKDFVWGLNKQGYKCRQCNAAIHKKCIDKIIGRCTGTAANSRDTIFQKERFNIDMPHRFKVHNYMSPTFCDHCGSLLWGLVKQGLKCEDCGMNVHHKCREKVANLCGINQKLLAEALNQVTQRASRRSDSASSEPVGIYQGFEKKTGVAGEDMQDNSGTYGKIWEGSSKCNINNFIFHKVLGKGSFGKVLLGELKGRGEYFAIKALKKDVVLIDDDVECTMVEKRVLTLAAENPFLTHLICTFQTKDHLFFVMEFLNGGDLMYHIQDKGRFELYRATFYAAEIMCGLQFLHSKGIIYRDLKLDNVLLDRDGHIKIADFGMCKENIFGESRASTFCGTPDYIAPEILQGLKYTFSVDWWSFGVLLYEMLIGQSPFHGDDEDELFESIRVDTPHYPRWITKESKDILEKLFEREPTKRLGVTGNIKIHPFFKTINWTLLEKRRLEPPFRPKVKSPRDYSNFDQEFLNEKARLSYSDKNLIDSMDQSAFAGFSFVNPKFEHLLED

PKA = target: T8, PKA (Homo sapiens, UniProt P17612); assay: In vitro kinase inhibition assay; format: biochemical; conditions: concentrations up to 300 mM
T8 construct: purchased Pierce
Source text: (§3) PKA was purchased (Pierce) and used without further purification.

T339G Fyn = target: T9, T339G Fyn (Homo sapiens, UniProt P06241, T342G); assay: In vitro kinase inhibition assay; format: biochemical
T9 construct: GST (N); made in house; host or cells: E. coli DH5a, pGEX-KT
T9 sequence (P06241 1-534 isoform P06241-2 T339G): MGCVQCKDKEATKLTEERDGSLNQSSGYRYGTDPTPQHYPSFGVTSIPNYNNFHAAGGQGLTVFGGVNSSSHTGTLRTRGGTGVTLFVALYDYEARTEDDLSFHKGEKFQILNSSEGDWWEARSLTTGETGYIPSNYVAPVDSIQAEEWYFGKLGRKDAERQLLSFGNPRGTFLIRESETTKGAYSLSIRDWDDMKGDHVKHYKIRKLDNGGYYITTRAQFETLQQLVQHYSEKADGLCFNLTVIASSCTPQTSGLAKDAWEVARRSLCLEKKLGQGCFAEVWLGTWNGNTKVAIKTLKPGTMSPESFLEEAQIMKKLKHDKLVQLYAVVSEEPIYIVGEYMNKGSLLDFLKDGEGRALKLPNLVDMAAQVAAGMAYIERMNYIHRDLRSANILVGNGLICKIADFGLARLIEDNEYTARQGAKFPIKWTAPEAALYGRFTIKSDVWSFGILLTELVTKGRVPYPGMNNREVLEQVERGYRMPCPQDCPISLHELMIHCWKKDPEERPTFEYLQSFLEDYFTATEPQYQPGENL
Source text: as §3

[11] = system: B cell receptor (BCR) mediated phosphorylation cascade; assay: Murine B cell assay, phosphotyrosine blot; format: cell-based; parameters: dose or concentration left out as unconfirmed; conditions: 30 minutes, anti-IgM stimulation
Protocol: Murine B Cell Assay: Splenic lymphocytes were isolated from 6-20 week old Balb/c or C57/B6 mice. The cells were washed out of the spleen into RPMI media containing 1 mg/mL DNase in and the red blood cells were lysed in 17 mM tris-ammonium chloride, pH 7.2, Approximately 4x10^6 cells were incubated at 37°C for 30 minutes with […] of 3g or 2 in 1.1% DMSO. B cell stimulation was initiated by the addition of 2 mg of goat anti-mouse IgM (Jackson Immuno Research, cat# 115-005-075) and subsequent incubation for 5 minutes at 37(C. The cells were isolated by centrifugation (13,000 rpm, 2 min) and lysed (lysis buffer: 1% Triton X-100, 50 mM tris pH 7.4, 2 mM EDTA, 150 mM NaCl, […] PMSF, 2 mM sodium orthovanadate, 10 mg/mL leupeptin, 10 mg/mL apoprotin). The cellular debris was then pelleted at 13,000 rpm for 15 min. Cellular proteins were separated by 10% polyacrylamide gel electrophoresis and transferred to a nitrocellulose membrane by Western blotting. Phosphotyrosine containing proteins were visualized by immunoblotting with anti-phosphotyrosine antibody (Upstate Biotechnology, Inc.).

In the case of `CC(C)(C)n1nc(-c2ccccc2)c2c(N)ncnc21` [Compound 1], the “level of protein tyrosine phosphorylation” value [1] is reported as “some ability to serve as cellular protein tyrosine kinase substrates”.
`CC(C)(C)n1nc(-c2ccc3ccccc3c2)c2c(N)ncnc21` [Compound 6b, 4-amino-1-(tert-butyl)-3-(2'-naphthyl)pyrazolo[3,4-d]pyrimidine] was tested, and the “increase in affinity over previously optimized inhibitors of wild type kinases” value (I338G v-Src [2]) was 20 fold.
With `CC(C)(C)n1nc(COc2cccc3ccccc23)c2c(N)ncnc21` [Compound 6i, 4-amino-1(tert-butyl)-3-(1'-naphthoxymethyl)pyrazolo[3,4-d]pyrimidine] the IC50 (I338G v-Src [3]; Table 3, read-out: 1338G v-Src) was 45 nM, the “selectivity for I338G v-Src with respect to wild type v-Src” value (shortened to “selectivity … to wild type v-Src”) (I338G v-Src [2]; in vitro) was > 6500 fold and the IC50 (WT v-Src; Table 3, read-out: vSrc) was > 300000 nM. For the same compound, the IC50 (WT Fyn) was > 300000 nM.
`CC(C)(C)n1nc(Cc2cccc3ccccc23)c2c(N)ncnc21` [Compound 11] was tested, and the IC50 (F80G CDK2) was 5 nM, the IC50 (F89G CAMK IIα) was 8 nM and the IC50 (glycine mutants) was < 10 nM. For the same compound, the “concentration below which none of the wild-type kinases tested are inhibited” value [4] was ≥ 1 µM, the IC50 (Cdc28·MBP-C1b2) was > 50000 nM and the “growth of yeast which express Cdc28-as1” value (cdc28-as1 strain) was “completely ablated”. For the same compound, the “growth of wild-type strains” value (wild-type cells) was “no effect on the growth of wild-type strains”, the decrease in mating (fus3-as1 strain) was 85 fold and the diploid colonies [5] was 0.6-1.1 x 10^5 cfu/ml. For the same compound, the “cfu/mL on YPD plates” value [6] was “No significant decrease in cfu/mL on YPD plates” and the IC50 (Cdc28-as1·MBP-C1b2) was 3.9 nM.
For `CC(C)(C)n1nc(Cc2ccc3ccccc3c2)c2c(N)ncnc21` [Compound 6j, 4-amino-1-(tert-butyl)-3-(2'-naphthylmethyl)pyrazolo[3,4-d]pyrimidine], the IC50 (I338G v-Src [3]; Table 3, read-out: 1338G v-Src) was 20 nM, the IC50 (WT v-Src; Table 3, read-out: vSrc) was > 300000 nM and the IC50 (WT Fyn) was > 300000 nM.
`CC(C)(C)c1ccc(-c2nn(C(C)(C)C)c3ncnc(N)c23)cc1` [Compound 6g, 4-amino-1-(tert-butyl)-3-(p-tert-butylphenyl)pyrazolo[3,4 d]pyrimidine] gave an IC50 (I338G v-Src [3]; Table 3, read-out: 1338G v-Src) of 99 nM and an IC50 (WT v-Src; Table 3, read-out: vSrc) of 65000 nM.
For `CC(C)(C)n1nc(-c2cccc3ccccc23)c2c(N)ncnc21` [4-amino-1-(tert-butyl)-3-(1'-naphthyl)pyrazolo[3,4-d]pyrimidine], the IC50 (I338G v-Src [3]) was 1.5 nM, the “increase in affinity over previously optimized inhibitors of wild type kinases” value (I338G v-Src [2]) was 20 fold and the IC50 (WT v-Src) was 1000 nM. For the same compound, the tyrosine phosphorylation ([7]; varying concentrations of 6a, 30 min) was “strongly diminishes tyrosine phosphorylation in a concentration dependent manner within minutes”, the phosphotyrosine signal ([8]; 500nM 6a) was “no loss of phosphotyrosine signal” and the “actin fibers and morphology” value ([9]; 250 nM 6a, 16 hours) was “clear actin fibers and appear indistinguishable from normal NIH3T3 fibroblasts; also recorded: selectively acquire a flattened morphology and selectively regain actin stress”. For the same compound, the “actin fibers and morphology” value [10] was “indistinguishable from untreated wild type cells; also recorded: no effect on this non-mutant cell line” and the tyrosine phosphorylation (Jurkat cells) was “no detectable decrease in phosphorylation”.
In the case of `CC(C)(C)c1ccc(C(=O)Nc2ncnc3c2c(-c2ccccc2)nn3C(C)(C)C)cc1` [Compound 3g, 4-(p-tert-butyl)benzamido-1-tert-butyl-3-phenylpyrazolo[3,4-d]pyrimidine], the IC50 (I338G v-Src [3]; read-out: IC50) is reported as 430 nM, the IC50 (I338G v-Src [3]; text b249, read-out: IC50) is reported as 430 nM and the “inhibits the engineered v-Src more effectively than WT Fyn” value (I338G v-Src [2]; in vitro) is reported as “over 700 times”. The “selectivity … to wild type v-Src” value (I338G v-Src [2]; in vitro) was ≥ 1000 fold, the “inhibition of WT v-Src” value (WT v-Src; limit of solubility) was “no inhibition” and the “inhibition of PKCd” value (PKCd) was “not detectably inhibited”. The “inhibition of PKA” value (PKA) was “not detectably inhibited”, the “selectivity for T339G Fyn over WT Fyn” value (T339G Fyn) was “greater than 300 fold” and the “phosphotyrosine pattern of B cell stimulation” value [11] was “no effect on the phosphotyrosine pattern of B cell stimulation”. For the same compound, the “cellular IC50 relative to the in vitro value” [7] was “roughly 100 times”, the tyrosine phosphorylation ([7]; 3g, 12 hours) was “dramatic diminution in the tyrosine phosphorylation of the putative v-Src substrate, p36; also recorded: blocks p36 phosphorylation in I338G v-Src” and the IC50 ([7]; Mus musculus, NIH3T3, read-out: IC50 for p36 phosphotyrosine signal) was ~50000 nM. The tyrosine phosphorylation ([8]; 3g, 12 hours) was “no loss of tyrosine phosphorylation” and the “cell morphology and polymerized actin” value ([9]; 3g, 48 hours) was “dramatic changes in cell morphology which are consistent with the reversal of transformation; also recorded: defined polymerized actin strings, strongly resembling the actin formations of non-transformed NIH3T3 fibroblasts; also recorded: selectively acquire a flattened morphology and selectively regain Actin stress fibers”.
In the case of `CC(C)(C)n1nc(-c2ccccc2)c2c(N)ncnc21` [2 (Figure 14), 4-Amino-1-tert-butyl-3-phenylpyrazolo [3,4-d] pyrimidine], the IC50 (I338G v-Src [3]) is reported as 430 nM and the “phosphotyrosine pattern of B cell stimulation” value [11] is reported as “significant reduction in tyrosine phosphorylation”.
For `CC(C)(C)n1nc(Cc2ccc3c(c2)OCO3)c2c(N)ncnc21` [Compound 6f, 4-amino-1-(tert-butyl)-3-piperonylpyrazolo[3,4-d]pyrimidine], the “selectivity … to wild type v-Src” value (I338G v-Src [2]; in vitro) was ~120 fold.
`CC(C)(C)n1nc(-c2cccc(OCc3c(Cl)cccc3Cl)c2)c2c(N)ncnc21` [Compound 6e, 4-amino-1-(tert-butyl)-3-(m-(2',6'-dichloro)benzyloxyphenyl) pyrazolo[3,4-d]pyrimidine] was tested, and the IC50 (I338G v-Src [3]; Table 3, read-out: 1338G v-Src) was 130 nM and the IC50 (WT v-Src; Table 3, read-out: vSrc) was 300000 nM.
For `OC[C@H]1O[C@@H](n2cnc3c(NOC4CCCC4)ncnc32)[C@H](O)[C@@H]1O` [N-6 cyclopentyloxyadenosine], the “in vitro inhibition of WT v-Src” value (WT v-Src) was “no detectable in vitro inhibition” and the “in vitro inhibition of Fyn” value (WT Fyn) was “no detectable in vitro inhibition”.
In the case of `CC(C)(C)n1nc(-c2cccc(OCc3ccccc3)c2)c2c(N)ncnc21` [Compound 6d, 4-amino-1-(tert-butyl)-3-(m-benzyloxyphenyl)pyrazolo[3,4-d]pyrimidine], the “selectivity for I338G v-Src with respect to wild type Fyn” value (I338G v-Src [2]; in vitro) is reported as > 100 fold.
